# Data: patent US12208091B2, “Compounds for treatment of eye diseases associated with excessive vascularisation” (Active Biotech AB, priority 2019, dated 2025)
# Assays:
# [1] = test system: choroidal neovascularisation; test: Laser-induced choroidal neovascularisation rat model, fluorescein angiography leakage score; type: in vivo, Brown Norway pigmented rats; set-up: key to Mean score of fluorescein leakage: 0 = no leakage, 1 = slight, 2 = moderate, 3 = strongly stained
# Method: Forty-eight (48) Brown Norway pigmented rats were divided into six (6) groups of eight (8) animals. Choroidal neovascularization was induced using a 532 nm argon laser photocoagulator (six (6) 75 μm-sized spots at 150 mW for 0.1 sec duration) in the right eyes on Day 0. The test item was administered three times a day by instillation or twice a day by oral administration from Day 0 (DO) just after ChNV induction to Day 21 (last day of the study). Control item (vehicle) was instilled three times a day and the reference item (Dexamethasone in olive oil) was administered by daily oral administration from the Day 0 just after induction of neovascularization to Day 21. Fundus neovessels were evaluated in the right eyes on Days 14 and 21 using Heidelberg's Retinal Angiograph (HRA). Lesion size was determined on choroid flatmounts labelled with Isolectin-B4 at the end of the in vivo period.
# On Day 0, animals were anesthetized by an intramuscular injection of a mix of xylazine (5 mg/kg) and ketamine (25 mg/kg). Pupils from the right eyes were dilated by instillation of one drop of 0.5% tropicamide. Then, six (6) choroidal burns (75 μm spot size) were done through a slit-lamp, with a contact lens, around the optic disc, between the main vessel branches using an argon laser photocoagulator (532 nm; 150 mW; 0.1 sec duration). Production of a bubble at the time of laser treatment confirmed the rupture of Bruch's membrane.
# Test, control, or reference items were administered topically by instillation (10 μL each) or by oral route (1 mL/kg) from Day 0 (just after the induction) to Day 21 (end of the study). Test and control items were administered three times a day (for instillation) and two times a day (for oral administration). Reference item was administered once a day by oral route.
# Fluorescein angiography was performed on Days 14 and 21 using an HRA (Heidelberg's Retinal Angiograph). After anaesthesia (same mix used for ChNV induction) and pupillary dilation, 250 μL/100 g (body weight) of a 10% sodium fluorescein was injected subcutaneously using a 26-G insulin syringe, and fluorescein photos were recorded 10 minutes after dye injection.
# The leakage of fluorescein on the angiograms were evaluated by two examiners in a masked fashion and graded as follows: • Score 0, no leakage; • Score 1, slightly stained; • Score 2, moderately stained; • Score 3, strongly stained.
# Statistical analysis, using Mann-Whitney U test or appropriate statistical model, were performed on the scoring of lesions visualized by HRA from each animal and on the scoring of the flat mounted preparations.
# The grading of fluorescein angiographies (FA) was based on the fluorescence intensity for each lesion. For each treatment group, results were expressed as the group mean score per time-point. Table 1 summarises the evaluation of FA recorded at 10 min on Days 14 and 21 (n=8 animals per group, right eyes). A statistical analysis was performed on the median of the individual intensity scores, using a Kruskall-Wallis test followed by a Mann & Whitney U multiple comparison test, which was used to compare each test, control or reference group.
# relapsing MS patients = conditions: clinical development program; cited from earlier work
# [2] = test system: bFGF induced corneal vascularisation; test: bFGF induced corneal vascularisation (pellet in corneal pocket), area of neovascularisation; type: in vivo, C57BL/6 mice
# Method: The area of the neovascularisation can be measured using the formula: Area=0.2·VL·CH·π wherein vessel length (VL) and continuous circumferential zone (in clock hours=CH) are measured as defined in FIG. 1. Treatment with Laquinimod of VEGF Induced Corneal Vascularisation
# Hydron pellets for induction of vascularisation were prepared from stimulant (bFGF) and binding agent (sucralfate).
# 47 CR female C57BL/6 mice aged 6 to 8 weeks were prepared for surgery by anesthetising with 90 mg/kg of pentobarbital, ip. Corneal vascularisation was induced by placement of a pellet in a corneal pocket cut in one eye. Signs for ocular irritation or infection were carefully monitored.
# Dosages of laquinimod in DI (deionised) water, vehicle (DDW=double distilled water), and avastin (positive control) were applied directly to the eye containing the pellet. Vascularisation was measured on day 6.
# [3] = Instillations 0.2% 3×/day, Day 14
# [4] = Instillations 0.2% 3×/day, Day 21
# [5] = Instillations 1% 3×/day, Day 14
# [6] = Instillations 1% 3×/day, Day 21
# [7] = Instillations 5% 3×/day, Day 14
# [8] = Instillations 5% 3×/day, Day 21
# [9] = group 5: 50 μg/animal topical bid ×5, measured day 6
compound,measurement,setting,value
CCN(C(=O)c1c(O)c2c(Cl)cccc2n(C)c1=O)c1ccccc1 [laquinimod],% of reduction vs respective vehicle,[1]; [3],0%
same,Mean score of fluorescein leakage,[1]; [3],0.7
same,% of reduction vs respective vehicle,[1]; [4],18%
same,Mean score of fluorescein leakage,[1]; [4],0.9
same,% of reduction vs respective vehicle,[1]; [5],<0%
same,Mean score of fluorescein leakage,[1]; [5],1.1
same,% of reduction vs respective vehicle,[1]; [6],<0%
same,Mean score of fluorescein leakage,[1]; [6],1.2
same,% of reduction vs respective vehicle,[1]; [7],0%
same,Mean score of fluorescein leakage,[1]; [7],0.7
same,% of reduction vs respective vehicle,[1]; [8],63%
same,Mean score of fluorescein leakage,[1]; [8],0.4
same,% of reduction vs respective vehicle,"[1]; Per os 1 mg/kg 2×/day, Day 14",<0%
same,Mean score of fluorescein leakage,"[1]; Per os 1 mg/kg 2×/day, Day 14",0.8
same,% of reduction vs respective vehicle,"[1]; Per os 1 mg/kg 2×/day, Day 21",18%
same,Mean score of fluorescein leakage,"[1]; Per os 1 mg/kg 2×/day, Day 21",0.9
same,vascular leakage,[1]; daily topical administration,effectively reduces vascular leakage
same,annual relapse rate,relapsing MS patients,consistent clinical benefit
same,Inhibition of corneal vascularisation induced by bFGF,"[2]; 0.5 mg/kg bid, group 4",11%
same,Inhibition of corneal vascularisation induced by bFGF,"[2]; 2.5 mg/kg bid, group 5",35%
same,Inhibition of corneal vascularisation induced by bFGF,"[2]; 2.5 mg/kg qid, group 7",56%
same,Area of vasc.,[2]; [9],2.30 ± 0.23
same,Area percent of positive control,[2]; [9],65%
same,Area of vasc.,"[2]; group 7: 50 μg/animal topical qid ×5, measured day 6",1.56 ± 0.15
